Where two headings read alike, the source gives them in different places.
Tests used:
[1] = Cell growth assay (WST-8) for "B" compounds; type: cell-based; conditions: T47D, read-out: Cell growth Inhibition in T47D cell line IC50
How it was run: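 Cells seeded at 1500/well overnight, then exposed to compounds for 4 days. 10% WST-8 added for 2.5 h at 37 °C and absorbance read at 450 nm. Growth given as absorbance relative to vehicle control, from three repeats.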

ER = ER (Homo sapiens (Human), UniProt P03372); assay: In-cell western blot analysis of ER for "B" compounds; type: cell-based; conditions: 16 hours, read-out: ICW DC50
How it was run: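 In-cell western: fixed cells stained with primary antibodies (2 h, RT), then anti-rabbit-680 and anti-mouse-800 secondaries (1:1000, 1 h, RT), imaged on a LI-COR plate reader. Relative ER level in treated wells expressed against untreated and DMSO-treated wells set as 100%.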

ER, sequence (P03372 whole entry): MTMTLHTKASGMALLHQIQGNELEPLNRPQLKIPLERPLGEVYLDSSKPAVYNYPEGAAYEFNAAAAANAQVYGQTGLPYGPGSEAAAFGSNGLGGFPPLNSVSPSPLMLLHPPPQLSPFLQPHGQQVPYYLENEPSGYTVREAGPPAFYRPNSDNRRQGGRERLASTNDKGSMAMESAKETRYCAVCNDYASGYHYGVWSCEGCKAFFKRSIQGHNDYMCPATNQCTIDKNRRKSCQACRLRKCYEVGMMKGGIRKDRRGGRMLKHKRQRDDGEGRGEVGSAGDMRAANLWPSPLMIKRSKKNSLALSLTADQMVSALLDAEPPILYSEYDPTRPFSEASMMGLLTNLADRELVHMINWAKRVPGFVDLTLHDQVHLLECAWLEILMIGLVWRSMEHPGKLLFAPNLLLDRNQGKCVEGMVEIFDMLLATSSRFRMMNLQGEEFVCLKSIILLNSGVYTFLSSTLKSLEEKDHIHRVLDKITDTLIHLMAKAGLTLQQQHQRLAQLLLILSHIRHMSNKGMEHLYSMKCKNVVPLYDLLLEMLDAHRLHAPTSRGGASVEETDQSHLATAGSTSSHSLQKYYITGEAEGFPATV

Structure (SMILES) | IC50 [1] [nM] | DC50 (ER) [nM] | IC50 ([1]; T47D cell line) [nM]
O=C1CCC(N2Cc3c(ccc4c3OCC43CCN(CC4CCC5(CN(c6ccc([C@@H]7c8ccc(O)cc8CC[C@@H]7c7ccccc7)cc6)C5)OC4)CC3)C2=O)C(=O)N1 (stereo partly drawn) [Compound B335, 3-(1′-((2-(4-((1R,2S)-6-hydroxy-2-phenyl-1,2,3,4-tetrahydronaphthalen-1-yl)phenyl)-5-oxa-2-azaspiro[3.5]nonan-7-yl)methyl)-6-oxo-6,8-dihydro-2H,7H-spiro[furo[2,3-e]isoindole-3,4′-piperidin]-7-yl)piperidine-2,6-dione] | < 1 | 10 to 100 | 
COc1c2c(cc3c1CN(C1CCC(=O)NC1=O)C3=O)CN(CC(=O)N1CCC3(CC1)CCN(c1ccc([C@@H]4c5ccc(O)cc5CC[C@@H]4c4ccccc4)cc1)CC3)C2 (stereo partly drawn) [Compound B203, 3-(6-(2-(9-(4-((1R,2S)-6-hydroxy-2-phenyl-1,2,3,4-tetrahydronaphthalen-1-yl)phenyl)-3,9-diazaspiro[5.5]undecan-3-yl)-2-oxoethyl)-4-methoxy-1-oxo-3,5,6,7-tetrahydropyrrolo[3,4-f]isoindol-2(1H)-yl)piperidine-2,6-dione] |  | < 10 | < 1
O=C1CC[C@H](N2Cc3c(ccc4c3OCC43CCN(C[C@@H]4CCC5(CCN(c6ccc([C@@H]7c8ccc(O)cc8CC[C@@H]7c7ccccc7)cc6)CC5)OC4)CC3)C2=O)C(=O)N1 [Compound B400, (S)-3-(1′-(((S)-9-(4-((1R,2S)-6-hydroxy-2-phenyl-1,2,3,4-tetrahydronaphthalen-1-yl)phenyl)-1-oxa-9-azaspiro[5.5]undecan-3-yl)methyl)-6-oxo-6,8-dihydro-2H,7H-spiro[furo[2,3-e]isoindole-3,4′-piperidin]-7-yl)piperidine-2,6-dione] | < 1 | < 10 | 
O=C1CCC(N2Cc3cc4c(cc3C2=O)OC[C@@H]2CN(C(=O)CN3CC5(CCN(c6ccc([C@@H]7c8ccc(O)cc8CC[C@@H]7c7ccccc7)cc6)C5)C3)CCN42)C(=O)N1 (stereo partly drawn) [Compound B206, 3-((S)-3-(2-(6-(4-((1R,2S)-6-hydroxy-2-phenyl-1,2,3,4-tetrahydronaphthalen-1-yl)phenyl)-2,6-diazaspiro[3.4]octan-2-yl)acetyl)-8-oxo-1,2,3,4,4a,5,8,10-octahydro-9H-pyrazino[1′,2′:4,5][1,4]oxazino[2,3-f]isoindol-9-yl)piperidine-2,6-dione] |  | < 10 | < 1
O=C1CCC(N2Cc3cc4c(cc3C2=O)OC[C@@H]2CN(C(=O)CN3CC5(CCN(c6ccc([C@@H]7c8ccc(O)cc8CC[C@@H]7c7ccccc7)cc6)CC5)C3)CCN42)C(=O)N1 (stereo partly drawn) [Compound B142, 3-((S)-3-(2-(7-(4-((1R,2S)-6-hydroxy-2-phenyl-1,2,3,4-tetrahydronaphthalen-1-yl)phenyl)-2,7-diazaspiro[3.5]nonan-2-yl)acetyl)-8-oxo-1,2,3,4,4a,5,8,10-octahydro-9H-pyrazino[1′,2′: 4,5][1,4]oxazino[2,3-f]isoindol-9-yl)piperidine-2,6-dione] |  | < 10 | < 1
CN(C(=O)c1ccc2c(c1)OC[C@@H]1CN(CC3CC4(CCN(c5ccc([C@@H]6c7ccc(O)cc7CC[C@@H]6c6ccccc6)cc5)CC4)C3)CCN21)C1CCC(=O)NC1=O (stereo partly drawn) [Compound B312, (4aS)-N-(2,6-dioxopiperidin-3-yl)-3-((7-(4-((1R,2S)-6-hydroxy-2-phenyl-1,2,3,4-tetrahydronaphthalen-1-yl)phenyl)-7-azaspiro[3.5]nonan-2-yl)methyl)-N-methyl-1,2,3,4,4a,5-hexahydrobenzo[b]pyrazino[1,2-d][1,4]oxazine-8-carboxamide] |  | > 100 | < 1
COc1c2c(cc3c1CN(C1CCC(=O)NC1=O)C3=O)CN(C(=O)CN1CCC3(CC1)CCN(c1ccc([C@@H]4c5ccc(O)cc5CC[C@@H]4c4ccccc4)cc1)CC3)C2 (stereo partly drawn) [Compound B210, 3-(6-(2-(9-(4-((1R,2S)-6-hydroxy-2-phenyl-1,2,3,4-tetrahydronaphthalen-1-yl)phenyl)-3,9-diazaspiro[5.5]undecan-3-yl)acetyl)-4-methoxy-1-oxo-3,5,6,7-tetrahydropyrrolo[3,4-f]isoindol-2(1H)-yl)piperidine-2,6-dione] |  | < 10 | < 1
O=C1CCC(N2Cc3c(ccc4c3OC[C@@H]3CN(C(=O)CN5CC(Oc6ccc([C@@H]7c8ccc(O)cc8CC[C@@H]7c7ccccc7)cc6)C5)CCN43)C2=O)C(=O)N1 (stereo partly drawn) [Compound B248, 3-((S)-7-(2-(3-(4-((1R,2S)-6-hydroxy-2-phenyl-1,2,3,4-tetrahydronaphthalen-1-yl)phenoxy)azetidin-1-yl)acetyl)-1-oxo-1,3,5,5a,6,7,8,9-octahydro-2H-pyrazino[1′,2′:4,5][1,4]oxazino[2,3-e]isoindol-2-yl)piperidine-2,6-dione] |  | 10 to 100 | < 1
CN(C(=O)c1ccc2c(c1)OC[C@H]1CN(CC3CC4(CCN(c5ccc([C@@H]6c7ccc(O)cc7CC[C@@H]6c6ccccc6)cc5)CC4)C3)CCN21)C1CCC(=O)NC1=O (stereo partly drawn) [Compound B326, (4aR)-N-(2,6-dioxopiperidin-3-yl)-3-((7-(4-((1R,2S)-6-hydroxy-2-phenyl-1,2,3,4-tetrahydronaphthalen-1-yl)phenyl)-7-azaspiro[3.5]nonan-2-yl)methyl)-N-methyl-1,2,3,4,4a,5-hexahydrobenzo[b]pyrazino[1,2-d][1,4]oxazine-8-carboxamide] |  | > 100 | 1 to 10
O=C1CCC(N2Cc3cc4c(cc3C2=O)CN(CC2COC3(CCN(c5ccc([C@@H]6c7ccc(O)cc7CC[C@@H]6c6ccccc6)cc5)CC3)OC2)C4)C(=O)N1 (stereo partly drawn) [Compound B355, 3-(6-((9-(4-((1R,2S)-6-hydroxy-2-phenyl-1,2,3,4-tetrahydronaphthalen-1-yl)phenyl)-1,5-dioxa-9-azaspiro[5.5]undecan-3-yl)methyl)-1-oxo-3,5,6,7-tetrahydropyrrolo[3,4-f]isoindol-2(1H)-yl)piperidine-2,6-dione] |  | 10 to 100 | < 1
O=C1CC[C@H](NC(=O)c2ccc3c(n2)OC[C@H]2CN(CC4COC5(CCN(c6ccc([C@@H]7c8ccc(O)cc8CC[C@@H]7c7ccccc7)cc6)CC5)OC4)CCN32)C(=O)N1 [Compound B336, (R)-N-((S)-2,6-dioxopiperidin-3-yl)-3-((9-(4-((1R,2S)-6-hydroxy-2-phenyl-1,2,3,4-tetrahydronaphthalen-1-yl)phenyl)-1,5-dioxa-9-azaspiro[5.5]undecan-3-yl)methyl)-1,2,3,4,4a,5-hexahydropyrazino[1,2-d]pyrido[2,3-b][1,4]oxazine-8-carboxamide] |  | 10 to 100 | 1 to 10
O=C1CCC(N2Cc3c(ccc4c3OCC43CCN(CC4COC5(CCN(c6ccc([C@@H]7c8ccc(O)cc8CC[C@@H]7c7ccccc7)cc6)CC5)C4)CC3)C2=O)C(=O)N1 (stereo partly drawn) [Compound B229, 3-(1′-((8-(4-((1R,2S)-6-hydroxy-2-phenyl-1,2,3,4-tetrahydronaphthalen-1-yl)phenyl)-1-oxa-8-azaspiro[4.5]decan-3-yl)methyl)-6-oxo-6,8-dihydro-2H,7H-spiro[furo[2,3-e]isoindole-3,4′-piperidin]-7-yl)piperidine-2,6-dione] | 1 to 10 | 10 to 100 | 
O=C1CCC(N2Cc3cc4c(cc3C2=O)OC[C@@H]2CN(CC(=O)N3CC5(CCN(c6ccc([C@@H]7c8ccc(O)cc8CC[C@@H]7c7ccccc7)cc6)CC5)C3)CCN42)C(=O)N1 (stereo partly drawn) [Compound B143, 3-((S)-3-(2-(7-(4-((1R,2S)-6-hydroxy-2-phenyl-1,2,3,4-tetrahydronaphthalen-1-yl)phenyl)-2,7-diazaspiro[3.5]nonan-2-yl)-2-oxoethyl)-8-oxo-1,2,3,4,4a,5,8,10-octahydro-9H-pyrazino[1′,2′: 4,5][1,4]oxazino[2,3-f]isoindol-9-yl)piperidine-2,6-dione] |  | < 10 | < 1
O=C1CCC(N2Cc3cc4c(cc3C2=O)OC[C@@H]2CN(C(=O)CN3CCC5(CC3)CCN(c3ccc([C@@H]6c7ccc(O)cc7CC[C@@H]6c6ccccc6)cc3)CC5)CCN42)C(=O)N1 (stereo partly drawn) [Compound B146, 3-((S)-3-(2-(9-(4-((1R,2S)-6-hydroxy-2-phenyl-1,2,3,4-tetrahydronaphthalen-1-yl)phenyl)-3,9-diazaspiro[5.5]undecan-3-yl)acetyl)-8-oxo-1,2,3,4,4a,5,8,10-octahydro-9H-pyrazino[1′,2′:4,5][1,4]oxazino[2,3-f]isoindol-9-yl)piperidine-2,6-dione] |  | < 10 | < 1
CN(C(=O)c1ccc2c(c1)OC[C@H]1CN(C(=O)CN3CCC4(CC3)CN(c3ccc(C5c6ccc(O)cc6CCC5c5ccccc5)cc3)C4)CCN21)C1CCC(=O)NC1=O (stereo in doubt) [Compound B223, (4aR)-N-(2,6-dioxopiperidin-3-yl)-3-(2-(2-(4-((1S,2R)-6-hydroxy-2-phenyl-1,2,3,4-tetrahydronaphthalen-1-yl)phenyl)-2,7-diazaspiro[3.5]nonan-7-yl)acetyl)-N-methyl-1,2,3,4,4a,5-hexahydrobenzo[b]pyrazino[1,2-d][1,4]oxazine-8-carboxamide] |  | 10 to 100 | > 10
O=C1CC[C@H](N2Cc3c(ccc4c3OCC43CCN(CC4COC5(CCN(c6ccc([C@@H]7c8ccc(O)cc8CC[C@@H]7c7ccccc7)cc6)CC5)OC4)CC3)C2=O)C(=O)N1 [Compound B337, (S)-3-(1′-((9-(4-((1R,2S)-6-hydroxy-2-phenyl-1,2,3,4-tetrahydronaphthalen-1-yl)phenyl)-1,5-dioxa-9-azaspiro[5.5]undecan-3-yl)methyl)-6-oxo-6,8-dihydro-2H,7H-spiro[furo[2,3-e]isoindole-3,4′-piperidin]-7-yl)piperidine-2,6-dione] | < 1 | < 10 | 
